Reference: patent US6380134B1, “N-pyridyl herbicide compounds” (Syngenta Crop Protection, Inc., priority 1998, dated 2002)
Values joined by “and” are separate entries in the source; they are usually repeats but may differ in a detail not shown here. Identical values can stand only once.

Key:
Ipomoea [1] = assay: Herbicidal action before plant emergence (pre-emergence action); format: in vivo; parameters: key: 1=complete damage; 9=no effect; Score figures of 1 to 4 (in particular 1 to 3) signify a good to very good herbicidal action; conditions: 2000 g a.i./ha sprayed immediately after sowing; evaluated after 3 weeks; nine-level key (1=complete damage, 9=no effect)
Text: (§1) Monocotyledonous and dicotyledonous test plants are sown in standard soil in plastic pots. Immediately after sowing, the test substances are sprayed on as aqueous suspensions (prepared from a 25% strength wettable powder (Example F3, b) in accordance with WO 97/34485) or as emulsions (prepared from a 25% strength emulsion concentrate (Example F1, c) in accordance with WO 97/34485), corresponding to a dosage of 2 kg of a.i./ha (500 l of water/ha). The test plants are subsequently grown in the greenhouse under optimal conditions. After a test period of 3 weeks, the experiment is evaluated using a nine-level key (1=complete damage, 9=no effect). Score figures of 1 to 4 (in particular 1 to 3) signify a good to very good herbicidal action.
(§2) Test plants: Lolium, Setaria, Sinapis, Solanum, Stellaria, Ipomea.

Lolium [2] = assay: as above; format: in vivo; parameters: key: 1=complete damage; 9=no effect; Score figures of 1 to 4 (in particular 1 to 3) signify a good to very good herbicidal action; conditions: 2000 g a.i./ha sprayed immediately after sowing; evaluated after 3 weeks; nine-level key (1=complete damage, 9=no effect)
Text: as §1, §2

Setaria [3] = assay: as above; format: in vivo; parameters: key: 1=complete damage; 9=no effect; Score figures of 1 to 4 (in particular 1 to 3) signify a good to very good herbicidal action; conditions: 2000 g a.i./ha sprayed immediately after sowing; evaluated after 3 weeks; nine-level key (1=complete damage, 9=no effect)
Text: as §1, §2

Sinapis [4] = assay: as above; format: in vivo; parameters: key: 1=complete damage; 9=no effect; Score figures of 1 to 4 (in particular 1 to 3) signify a good to very good herbicidal action; conditions: 2000 g a.i./ha sprayed immediately after sowing; evaluated after 3 weeks; nine-level key (1=complete damage, 9=no effect)
Text: as §1, §2

Solanum [5] = assay: as above; format: in vivo; parameters: key: 1=complete damage; 9=no effect; Score figures of 1 to 4 (in particular 1 to 3) signify a good to very good herbicidal action; conditions: 2000 g a.i./ha sprayed immediately after sowing; evaluated after 3 weeks; nine-level key (1=complete damage, 9=no effect)
Text: as §1, §2

Stellaria [6] = assay: as above; format: in vivo; parameters: key: 1=complete damage; 9=no effect; Score figures of 1 to 4 (in particular 1 to 3) signify a good to very good herbicidal action; conditions: 2000 g a.i./ha sprayed immediately after sowing; evaluated after 3 weeks; nine-level key (1=complete damage, 9=no effect)
Text: as §1, §2

Ipomoea [7] = assay: Post-emergence herbicidal action; format: in vivo; parameters: key: 1=complete damage; 9=no effect; Score figures of 1 to 4 (in particular 1 to 3) signify a good to very good herbicidal action; conditions: dose 2000 g a.i./ha; sprayed at 4- to 6-leaf stage; evaluated after approximately 18 days; nine-level key (1=complete damage, 9=no effect)
Method: (§3) Monocotyledonous and dicotyledonous test plants are grown in the greenhouse in plastic pots containing standard soil and, in the 4- to 6-leaf stage, sprayed with an aqueous suspension of the test substances of the formula I, prepared from a 25% strength wettable powder (Example F3, b) in accordance with WO 97/34485) or with an emulsion of the test substances of the formula I, prepared from a 25% strength emulsion concentrate (Example F1, c) in accordance with WO 97/34485), corresponding to a dosage of 2 kg/ a.i./ha (500 l of water/ha). The test plants are subsequently grown on in the greenhouse under optimal conditions. After a test period of approximately 18 days, the experiment is evaluated using a nine-level key (1=complete damage, 9=no effect). Score figures of 1 to 4 (in particular 1 to 3) signify a good to very good herbicidal action.
as §2

Lolium [8] = assay: Post-emergence herbicidal action; format: in vivo; parameters: key: 1=complete damage; 9=no effect; Score figures of 1 to 4 (in particular 1 to 3) signify a good to very good herbicidal action; conditions: dose 2000 g a.i./ha; sprayed at 4- to 6-leaf stage; evaluated after approximately 18 days; nine-level key (1=complete damage, 9=no effect)
Method: as §3, §2

Setaria [9] = assay: Post-emergence herbicidal action; format: in vivo; parameters: key: 1=complete damage; 9=no effect; Score figures of 1 to 4 (in particular 1 to 3) signify a good to very good herbicidal action; conditions: dose 2000 g a.i./ha; sprayed at 4- to 6-leaf stage; evaluated after approximately 18 days; nine-level key (1=complete damage, 9=no effect)
Method: as §3, §2

Sinapis [10] = assay: Post-emergence herbicidal action; format: in vivo; parameters: key: 1=complete damage; 9=no effect; Score figures of 1 to 4 (in particular 1 to 3) signify a good to very good herbicidal action; conditions: dose 2000 g a.i./ha; sprayed at 4- to 6-leaf stage; evaluated after approximately 18 days; nine-level key (1=complete damage, 9=no effect)
Method: as §3, §2

Solanum [11] = assay: Post-emergence herbicidal action; format: in vivo; parameters: key: 1=complete damage; 9=no effect; Score figures of 1 to 4 (in particular 1 to 3) signify a good to very good herbicidal action; conditions: dose 2000 g a.i./ha; sprayed at 4- to 6-leaf stage; evaluated after approximately 18 days; nine-level key (1=complete damage, 9=no effect)
Method: as §3, §2

Stellaria [12] = assay: Post-emergence herbicidal action; format: in vivo; parameters: key: 1=complete damage; 9=no effect; Score figures of 1 to 4 (in particular 1 to 3) signify a good to very good herbicidal action; conditions: dose 2000 g a.i./ha; sprayed at 4- to 6-leaf stage; evaluated after approximately 18 days; nine-level key (1=complete damage, 9=no effect)
Method: as §3, §2

Row | melting point | Structure (SMILES) | Pre-emergence action, score, test plant Ipomoea (Ipomoea [1]) | Pre-emergence action, score, test plant Lolium (Lolium [2]) | Pre-emergence action, score, test plant Setaria (Setaria [3]) | Pre-emergence action, score, test plant Sinapis (Sinapis [4]) | Pre-emergence action, score, test plant Solanum (Solanum [5]) | Pre-emergence action, score, test plant Stellaria (Stellaria [6]) | Post-emergence action, score, Ipomoea (Ipomoea [7]) | Post-emergence action, score, Lolium (Lolium [8]) | Post-emergence action, score, Setaria (Setaria [9]) | Post-emergence action, score, Sinapis (Sinapis [10]) | Post-emergence action, score, Solanum (Solanum [11]) | Post-emergence action, score, Stellaria (Stellaria [12])
1 | 121 to 122 °C and 119 to 121 °C | C#CCOc1nc(-n2c(=O)cc(C(F)(F)F)n(C)c2=O)c(F)cc1Cl [1.022, 1-(2-propargyloxy-3-chloro-5-fluoropyridine-6-yl)-3-methyl-4-trifluoromethylpyrimidine-2,6-dione] | 1 | 1 | 1 | 1 | 1 | 1 | 1 | 1 | 1 | 1 | 1 | 1
2 | 200 to 202 °C | Cn1c(C(F)(F)F)cc(=O)n(-c2nc(O)c(Cl)cc2F)c1=O [1.002, 1-(2-hydroxy-3-chloro-5-fluoropyridine-6-yl)-3-methyl-4-trifluoromethylpyrimidine-2,6-dione] | 1 | 7 | 1 | 1 | 1 | 5 | 1 | 6 | 5 | 2 | 1 | 5
3 | 192 to 193 °C | N#Cc1cc(F)c(N2C(=O)C3CCCCN3C2=O)nc1Cl (stereo not drawn) [Example H8, 2-(3-fluoro-6-chloro-5-cyano-2-pyridyl)tetrahydroimidazo[1,5-a]pyridine-1,3-dione] |  |  |  |  |  |  |  |  |  |  |  | 
4 |  | Cn1c(C(F)(F)F)cc(=O)n(-c2nc(OCC#N)c(Cl)cc2F)c1=O [1.363] | 7 | 3 | 1 | 2 | 1 | 1 | 1 | 1 | 1 | 1 | 1 | 1
5 |  | Cn1c(C(F)(F)F)cc(=O)n(-c2nc(OCC(F)(F)F)c(Cl)cc2F)c1=O [1.365] | 1 | 1 | 1 | 1 | 1 | 1 | 1 | 1 | 1 | 1 | 1 | 1
6 |  | CCOc1nc(-n2c(=O)cc(C(F)(F)F)n(C)c2=O)c(F)cc1Cl [1.017] | 1 | 1 | 1 | 1 | 1 | 1 | 1 | 1 | 1 | 1 | 1 | 1
